In patent US20230310427A1, “NEW THERAPEUTIC USE OF RILPIVIRINE” (UNIVERSITY OF SOUTH AUSTRALIA, priority 2020, published 2023):

Legend:
T47D cells = test: Cell cycle analysis (flow cytometry); type: cell-based; conditions: 48-hour treatment
Experimental: (§1) The effect of Rilpivirine on cell cycle distribution in different cancer cell lines was evaluated by flow cytometric analysis. Briefly, cells were seeded in 6-well plates at a density of 6 × 10^4 cells/well. All plates were incubated overnight at 37° C. in a 5% CO2 incubator. Following the incubation, the test compounds (Rilpivirine (Ril) and comparators, Alisertib (Ali; a known Aurora A inhibitor) and Etravirine (Etra; 4-[[6-amino-5-bromo-2-[(4-cyanophenyl)amino]-4-pyrimidinyl]oxy]-3,5-dimethylbenzonitrile - a structurally similar NNRTI drug compound sold under the brand name Intelence® (Janssen Therapeutics)) were added to individual wells and the plates were incubated at same condition for 24 h, 48 h or 72 h. Subsequently, the medium was removed from the wells and transferred into fluorescence-activated cell sorting (FACS) tubes. The adherent cells remaining were trypsinised, re-suspended in media and transferred into the FACS tubes. Cells were centrifuged, fixed with cold 70% ethanol for 15 min and pelleted. The pelleted cells were then re-suspended in 200 µL propidium iodide (PI) solution (50 µg/mL propidium iodide, 0.1 mg/mL ribonuclease A, 0.1% sodium citrate, 0.1% triton X-100) and incubated in the dark for 1.5 h at room temperature. Following the incubation, 200 µL PBS was added. Samples were assessed using a flow cytometer (Cytoflex; Beckman Coulter Inc, Brea, CA, United States of America) and data were analysed using the Cytexpert software.

PC3 cells = test: Cell cycle analysis (flow cytometry); type: cell-based; conditions: 48 hour treatment
Experimental: as §1

Aurora B kinase = target: T1, Aurora B kinase (Homo sapiens, UniProt Q96GD4); test: Kinase assay; type: biochemical; conditions: kinase inhibition profiling (FIG. 2), concentration not given
T1 construct: purchased Promega (ADP-Glo kits) or Reaction Biology Corporation / Eurofins discovery services (external)
T1 sequence (Q96GD4 whole entry): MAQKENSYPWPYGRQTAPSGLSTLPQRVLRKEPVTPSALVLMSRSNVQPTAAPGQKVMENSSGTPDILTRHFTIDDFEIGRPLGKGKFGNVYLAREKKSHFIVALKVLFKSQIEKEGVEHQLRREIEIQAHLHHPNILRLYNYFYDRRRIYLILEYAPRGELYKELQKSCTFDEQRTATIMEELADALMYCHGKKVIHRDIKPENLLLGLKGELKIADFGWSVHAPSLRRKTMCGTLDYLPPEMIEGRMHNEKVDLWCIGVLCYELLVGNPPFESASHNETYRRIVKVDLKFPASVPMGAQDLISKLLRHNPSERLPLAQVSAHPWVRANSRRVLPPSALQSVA
Experimental: (§2) The ability of compounds to inhibit kinases was measured using ADP-Glo^Tm assay kits (Promega, Madison, WI, United States of America) or externally using radioisotope based assays (Reaction Biology Corporation, Malvern, PA, United States of America and Eurofins discovery services, France). The ADP-Glo assay was performed as reported previously (Basnet SK et al., Mol Pharmacol 88(5):935-948, 2015).The assay plate was read for luminescence using Envision multi-label plate reader (PerkinElmer, Waltham, MA, United States of America). Half-maximal inhibition (IC50) values were determined from a plot of percent residual activity versus concentration of test compounds using GraphPad Prism software. Ki values were calculated from IC50 values using the Cheng-Prusoff equation: Ki= IC50/ [1 + ([ATP]/Km ATP)], where [ATP] is the ATP concentration used for the IC50 determination and Km ATP for each kinase is determined from an individual experiment.

Aurora A kinase = target: T2, Aurora A kinase (Homo sapiens, UniProt O14965); test: Kinase assay; type: biochemical; conditions: kinase inhibition profiling (FIG. 2), concentration not given
T2 construct: purchased Promega (ADP-Glo kits) or Reaction Biology Corporation / Eurofins discovery services (external)
T2 sequence (O14965 1-403): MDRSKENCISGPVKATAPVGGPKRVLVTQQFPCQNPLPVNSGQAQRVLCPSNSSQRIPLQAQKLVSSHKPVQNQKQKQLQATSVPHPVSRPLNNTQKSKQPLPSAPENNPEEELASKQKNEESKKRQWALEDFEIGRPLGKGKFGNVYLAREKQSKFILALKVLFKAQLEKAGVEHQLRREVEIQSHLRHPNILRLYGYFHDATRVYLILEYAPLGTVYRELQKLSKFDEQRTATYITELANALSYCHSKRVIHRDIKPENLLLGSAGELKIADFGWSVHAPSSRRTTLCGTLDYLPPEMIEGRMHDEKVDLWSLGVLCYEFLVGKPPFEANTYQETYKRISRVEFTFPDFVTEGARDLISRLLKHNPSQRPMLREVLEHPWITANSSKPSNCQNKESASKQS
Experimental: as §2

Row | inhibitory activity against Aurora B (Aurora B kinase) | inhibitory activity against Aurora A (Aurora A kinase) | SMILES | cell cycle arrest (T47D cells; p53 mutant) | cell cycle arrest (PC3 cells; p53 mutant) | cell cycle arrest (T47D cells; 10 µM) | cell cycle arrest (PC3 cells; 10 µM)
1 |  |  | COc1cc(Nc2ncc3c(n2)-c2ccc(Cl)cc2C(c2c(F)cccc2OC)=NC3)ccc1C(=O)O [Alisertib] | arrest T47D breast cancer cells in G2/M phase | induce G2/M arrest |  | 
2 | no inhibitory activity | no inhibitory activity | Cc1cc(C#N)cc(C)c1Oc1nc(Nc2ccc(C#N)cc2)nc(N)c1Br [Etravirine, 4-[[6-amino-5-bromo-2-[(4-cyanophenyl)amino]-4-pyrimidinyl]oxy]-3,5-dimethylbenzonitrile] |  |  | no G2/M arrest | did not induce G2/M arrest
